Measurements from patent US10717733B2, “Haloallylamine indole and azaindole derivative inhibitors of lysyl oxidases and uses thereof” (PHARMAXIS LTD., priority 2016, dated 2020).
Counter-ions that a name gives are not always drawn.

Experiments:
Format in all cases: biochemical
[1] = target: human recombinant SSAO/VAP-1 (Homo sapiens (Human), UniProt Q16853); assay: Inhibition of human recombinant SSAO/VAP-1 amine oxidase activity; settings: 30 min preincubation at 37° C., 600 μM benzylamine
Method in brief: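 Purified SSAO/VAP-1 (residues 34-763, expressed in CHO Lec 8 cells; 0.25 μg/mL) preincubated 30 min at 37° C with compound in 0.1 M sodium phosphate pH 7.4. Reaction mix of 600 μM benzylamine, 120 μM Amplex Red and 1.5 U/mL HRP added; fluorescence (ex 565/em 590 nm) read every 2.5 min for 30 min; IC50 from kinetic slopes over 4-11 point curves.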

Recombinant human MAO-B = Recombinant human MAO-B (Homo sapiens (Human), UniProt P27338); assay: Inhibition of human recombinant MAO-B; settings: benzylamine 100 μM
Recombinant human MAO-B, sequence (P27338 whole entry): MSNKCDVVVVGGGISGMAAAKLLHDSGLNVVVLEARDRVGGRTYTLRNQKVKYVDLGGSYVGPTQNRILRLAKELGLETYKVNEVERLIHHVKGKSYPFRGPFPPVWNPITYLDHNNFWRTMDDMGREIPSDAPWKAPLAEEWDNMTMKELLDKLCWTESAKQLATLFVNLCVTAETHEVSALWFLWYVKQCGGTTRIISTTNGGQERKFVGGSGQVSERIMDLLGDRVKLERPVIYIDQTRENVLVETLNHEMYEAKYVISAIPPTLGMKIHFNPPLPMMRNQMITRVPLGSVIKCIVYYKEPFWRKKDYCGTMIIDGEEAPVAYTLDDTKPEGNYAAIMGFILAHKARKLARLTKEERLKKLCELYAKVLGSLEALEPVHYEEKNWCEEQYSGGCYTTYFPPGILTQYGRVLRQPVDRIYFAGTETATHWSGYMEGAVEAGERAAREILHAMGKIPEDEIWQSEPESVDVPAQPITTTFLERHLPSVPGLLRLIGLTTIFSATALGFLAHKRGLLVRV
Method in brief: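 Recombinant human MAO-B used as enzyme source (0.06 mg/mL, stated concentration). Run as for the human SSAO/VAP-1 assay, except benzylamine substrate at 100 μM.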

Human LOXL2 = Human LOXL2 (Homo sapiens (Human), UniProt Q9Y4K0); assay: LOXL2 inhibition, peroxidase-coupled Amplex Red amine oxidase assay; settings: 30 min preincubation at 37° C., putrescine substrate
Human LOXL2, sequence (Q9Y4K0 26-774): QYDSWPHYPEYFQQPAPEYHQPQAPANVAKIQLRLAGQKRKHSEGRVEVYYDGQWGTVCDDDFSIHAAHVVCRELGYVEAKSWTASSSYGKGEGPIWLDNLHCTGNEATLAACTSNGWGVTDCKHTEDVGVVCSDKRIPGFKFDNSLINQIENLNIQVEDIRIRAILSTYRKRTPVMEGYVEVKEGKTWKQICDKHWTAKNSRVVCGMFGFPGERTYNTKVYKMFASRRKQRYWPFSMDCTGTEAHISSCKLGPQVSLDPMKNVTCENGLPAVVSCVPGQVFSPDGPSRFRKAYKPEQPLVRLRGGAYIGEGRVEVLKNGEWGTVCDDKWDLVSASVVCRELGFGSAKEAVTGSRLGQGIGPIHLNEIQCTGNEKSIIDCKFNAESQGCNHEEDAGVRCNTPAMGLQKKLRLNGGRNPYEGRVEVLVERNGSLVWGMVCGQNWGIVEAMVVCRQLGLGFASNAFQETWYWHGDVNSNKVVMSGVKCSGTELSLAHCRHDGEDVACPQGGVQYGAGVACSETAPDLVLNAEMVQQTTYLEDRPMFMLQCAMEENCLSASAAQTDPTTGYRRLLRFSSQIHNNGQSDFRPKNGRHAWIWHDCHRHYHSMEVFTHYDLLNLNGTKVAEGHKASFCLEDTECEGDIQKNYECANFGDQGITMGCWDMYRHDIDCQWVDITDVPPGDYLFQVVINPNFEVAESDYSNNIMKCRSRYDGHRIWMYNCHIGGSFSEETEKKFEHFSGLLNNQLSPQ
Method in brief: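 Enzyme in 1.2 M urea, 50 mM sodium borate pH 8.2 with 1 μM mofegiline and 0.5 mM pargyline, preincubated 30 min at 37° C with compound (11-point CRC). Putrescine at twice KM (10 mM for LOXL2) with Amplex Red/HRP; fluorescence (ex 565, em 590) read kinetically 30 min; IC50 from slopes.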

Bovine LOX = Bovine LOX (Bos taurus (Bovine), UniProt P33072); assay: LOX inhibition, peroxidase-coupled Amplex Red amine oxidase assay; settings: 30 min preincubation at 37° C., putrescine substrate
Bovine LOX, sequence (P33072 170-418): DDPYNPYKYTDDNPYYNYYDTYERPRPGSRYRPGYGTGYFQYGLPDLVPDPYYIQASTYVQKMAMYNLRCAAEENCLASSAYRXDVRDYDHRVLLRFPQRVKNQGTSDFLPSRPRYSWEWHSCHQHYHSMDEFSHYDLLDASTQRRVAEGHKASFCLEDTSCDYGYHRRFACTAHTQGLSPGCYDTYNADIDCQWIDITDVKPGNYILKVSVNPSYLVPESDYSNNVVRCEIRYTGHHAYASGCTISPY
Method in brief: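 Bovine LOX in 1.2 M urea, 50 mM sodium borate pH 8.2 with 1 μM mofegiline and 0.5 mM pargyline; putrescine at twice KM (e.g. 20 mM for LOX) with Amplex Red/HRP. Fluorescence (ex 565/em 590 nm) read kinetically over 30 min at 37–45 °C; IC50 from slopes.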

human recombinant SSAO/VAP-1, sequence (Q16853 34-763): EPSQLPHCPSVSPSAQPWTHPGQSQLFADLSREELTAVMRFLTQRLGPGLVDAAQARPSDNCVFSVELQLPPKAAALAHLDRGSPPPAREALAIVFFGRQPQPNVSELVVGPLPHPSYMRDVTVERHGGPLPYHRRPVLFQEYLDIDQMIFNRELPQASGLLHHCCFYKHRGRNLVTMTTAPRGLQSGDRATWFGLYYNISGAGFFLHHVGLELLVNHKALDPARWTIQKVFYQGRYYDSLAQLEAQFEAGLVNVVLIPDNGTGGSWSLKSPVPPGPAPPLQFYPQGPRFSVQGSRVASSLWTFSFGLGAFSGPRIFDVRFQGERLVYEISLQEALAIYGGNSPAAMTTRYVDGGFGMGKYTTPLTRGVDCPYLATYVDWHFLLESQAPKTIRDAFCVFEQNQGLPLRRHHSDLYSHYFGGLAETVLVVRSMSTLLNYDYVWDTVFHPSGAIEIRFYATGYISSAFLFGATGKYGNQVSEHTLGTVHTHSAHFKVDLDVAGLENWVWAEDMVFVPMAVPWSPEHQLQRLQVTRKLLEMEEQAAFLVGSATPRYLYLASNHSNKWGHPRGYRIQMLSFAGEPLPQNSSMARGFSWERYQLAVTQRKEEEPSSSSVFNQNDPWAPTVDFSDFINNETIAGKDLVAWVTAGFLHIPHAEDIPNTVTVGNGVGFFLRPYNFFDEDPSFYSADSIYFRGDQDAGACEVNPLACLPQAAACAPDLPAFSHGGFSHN

| SMILES | IC50 [1] [nM] | IC50 (Recombinant human MAO-B) [nM] | IC50 (Human LOXL2) [nM] | IC50 (Bovine LOX) [nM] |
| --- | --- | --- | --- | --- |
| Cc1c(-c2cncc(S(=O)(=O)N(C)C)c2)c2cc(C3CC3)ccc2n1C/C(F)=C/CN [Compound 79, (Z)-5-(1-(4-amino-2-fluorobut-2-en-1-yl)-5-cyclopropyl-2-methyl-1H-indol-3-yl)-N,N-dimethylpyridine-3-sulfonamide] | > 3000 | > 3000 | < 300 | > 300 |
| Cc1c(-c2cncc(S(=O)(=O)N(C)C)c2)c2ccccc2n1C/C(F)=C/CN [Compound 63, (Z)-5-(1-(4-amino-2-fluorobut-2-en-1-yl)-2-methyl-1H-indol-3-yl)-N,N-dimethylpyridine-3-sulfonamide] | > 3000 | > 3000 | < 300 | > 300 |
| COc1ccc2c(c1)c(-c1cccc(S(=O)(=O)N(C)C)c1)c(C)n2C/C(F)=C/CN [Compound 49, (Z)-3-(1-(4-amino-2-fluorobut-2-en-1-yl)-5-methoxy-2-methyl-1H-indol-3-yl)-N,N-dimethylbenzenesulfonamide] | > 3000 | > 3000 | < 300 | > 300 |
| Cc1c(-c2cccc(S(=O)(=O)N(C)C)c2)c2nc(F)ccc2n1C/C(F)=C/CN [Compound 109, (Z)-3-(1-(4-amino-2-fluorobut-2-en-1-yl)-5-fluoro-2-methyl-1H-pyrrolo[3,2-b]pyridin-3-yl)-N,N-dimethylbenzenesulfonamide] | > 3000 | > 3000 | < 300 | > 300 |
| Cc1c(-c2cccc(S(=O)(=O)N(C)C)c2)c2cc(C(=O)N(C)C)ccc2n1C/C(F)=C/CN [Compound 6, (Z)-1-(4-amino-2-fluorobut-2-en-1-yl)-3-(3-(N,N-dimethylsulfamoyl)phenyl)-N,N,2-trimethyl-1H-indole-5-carboxamide] | > 3000 | > 3000 | < 300 | > 300 |
| Cc1c(-c2cccc(S(=O)(=O)N(C)C)c2)c2nc(O)ccc2n1C/C(F)=C/CN [Compound 60, (Z)-3-(1-(4-amino-2-fluorobut-2-en-1-yl)-5-hydroxy-2-methyl-1H-pyrrolo[3,2-b]pyridin-3-yl)-N,N-dimethylbenzenesulfonamide Hydrochloride] | > 3000 | > 3000 | < 300 | > 300 |
| CCOC(=O)c1ccc2c(c1)c(-c1cccc(S(C)(=O)=O)c1)c(C)n2C/C(F)=C/CN [Compound 17, (Z)-ethyl 1-(4-amino-2-fluorobut-2-en-1-yl)-2-methyl-3-(3-(methylsulfonyl)phenyl)-1H-indole-5-carboxylate] | > 3000 | > 3000 | < 300 | > 300 |
| NC/C=C(\F)Cn1cc(-c2ccc(F)cc2)c2ccccc21 [Compound 1, (Z)-3-fluoro-4-(3-(4-fluorophenyl)-1H-indol-1-yl)but-2-en-1-amine] | > 3000 | > 3000 | < 300 | > 300 |
| Cc1cc(-c2c(C)n(C/C(F)=C/CN)c3ccc([N+](=O)[O-])cc23)cc(C)n1 [Compound 101, (Z)-4-(3-(2,6-dimethylpyridin-4-yl)-2-methyl-5-nitro-1H-indol-1-yl)-3-fluorobut-2-en-1-amine] | > 3000 | > 3000 | < 300 | > 300 |
| Cc1c(-c2ccncc2)c2cc(S(=O)(=O)N(C)C)ccc2n1C/C(F)=C/CN [Compound 81, (Z)-1-(4-amino-2-fluorobut-2-en-1-yl)-N,N,2-trimethyl-3-(pyridin-4-yl)-1H-indole-5-sulfonamide] | > 3000 | > 3000 | < 300 | > 300 |
| COc1ccc2c(n1)c(-c1cccc(S(=O)(=O)N(C)C)c1)c(C)n2C/C(F)=C/CN [Compound 61, (Z)-3-(1-(4-amino-2-fluorobut-2-en-1-yl)-5-methoxy-2-methyl-1H-pyrrolo[3,2-b]pyridin-3-yl)-N,N-dimethylbenzenesulfonamide Dihydrochloride] | > 3000 | > 3000 | < 300 | > 300 |
| Cc1cc(-c2c(C)n(C/C(F)=C/CN)c3ccc(C(=O)N(C)C)cc23)cc(C)n1 [Compound 90, (Z)-1-(4-amino-2-fluorobut-2-en-1-yl)-3-(2,6-dimethylpyridin-4-yl)-N,N,2-trimethyl-1H-indole-5-carboxamide] | > 3000 | > 3000 | < 300 | > 300 |
| Cc1c(-c2cncnc2)c2cc(Cl)ccc2n1C/C(F)=C/CN [Compound 80, (Z)-4-(5-chloro-2-methyl-3-(pyrimidin-5-yl)-1H-indol-1-yl)-3-fluorobut-2-en-1-amine] | > 3000 | > 3000 | < 300 | > 300 |
| Cc1c(-c2cncc(S(=O)(=O)N(C)C)c2)c2ncc(Cl)cc2n1C/C(F)=C/CN [Compound 72, (Z)-5-(1-(4-amino-2-fluorobut-2-en-1-yl)-6-chloro-2-methyl-1H-pyrrolo[3,2-b]pyridin-3-yl)-N,N-dimethylpyridine-3-sulfonamide] | > 3000 | > 3000 | < 300 | > 300 |
| Cc1c(-c2cccc(Cl)c2)c2cc(C(=O)O)ccc2n1C/C(F)=C/CN [Compound 28, (Z)-1-(4-amino-2-fluorobut-2-en-1-yl)-3-(3-chlorophenyl)-2-methyl-1H-indole-5-carboxylic acid] | > 3000 | > 3000 | < 300 | > 300 |
| CCOC(=O)c1ccc2c(c1)c(-c1cc(S(=O)(=O)N(C)C)ccc1C)c(C)n2C/C(F)=C/CN [Compound 19, (Z)-ethyl 1-(4-amino-2-fluorobut-2-en-1-yl)-3-(5-(N,N-dimethylsulfamoyl)-2-methylphenyl)-2-methyl-1H-indole-5-carboxylate] | > 3000 | > 3000 | < 300 | > 300 |
| COCc1ccc2c(n1)c(-c1cccc(S(=O)(=O)N(C)C)c1)c(C)n2C/C(F)=C/CN [Compound 103, (Z)-3-(1-(4-amino-2-fluorobut-2-en-1-yl)-5-(methoxymethyl)-2-methyl-1H-pyrrolo[3,2-b]pyridin-3-yl)-N,N-dimethylbenzenesulfonamide] | > 3000 | > 3000 | < 300 | > 300 |
| Cc1c(-c2cccc(S(=O)(=O)N(C)C)c2)c2nc(C(=O)N(C)C)ccc2n1C/C(F)=C/CN [Compound 44, (Z)-1-(4-amino-2-fluorobut-2-en-1-yl)-3-(3-(N,N-dimethylsulfamoyl)phenyl)-N,N,2-trimethyl-1H-pyrrolo[3,2-b]pyridine-5-carboxamide] | > 3000 | > 3000 | < 300 | > 300 |
| Cc1c(-c2cccc(S(=O)(=O)N(C)C)c2)c2ccc(C(N)=O)cc2n1C/C(F)=C/CN [Compound 11, (Z)-1-(4-amino-2-fluorobut-2-en-1-yl)-3-(3-(N,N-dimethylsulfamoyl)phenyl)-2-methyl-1H-indole-6-carboxamide] | > 3000 | > 3000 | < 300 | > 300 |
| Cc1c(-c2cccc(S(=O)(=O)N(C)C)c2)c2cccc(C(=O)N(C)C)c2n1C/C(F)=C/CN [Compound 47, (Z)-1-(4-amino-2-fluorobut-2-en-1-yl)-3-(3-(N,N-dimethylsulfamoyl)phenyl)-N,N,2-trimethyl-1H-indole-7-carboxamide] | > 3000 | > 3000 | < 300 | > 300 |
| Cc1c(-c2ccncc2)c2cc(S(C)(=O)=O)ccc2n1C/C(F)=C/CN [Compound 88, (Z)-3-fluoro-4-(2-methyl-5-(methylsulfonyl)-3-(pyridin-4-yl)-1H-indol-1-yl)but-2-en-1-amine] | > 3000 | > 3000 | < 300 | > 300 |
| Cc1c(-c2cccc(N(C)S(C)(=O)=O)c2)c2cc(C(=O)O)ccc2n1C/C(F)=C/CN [Compound 38, (Z)-1-(4-amino-2-fluorobut-2-en-1-yl)-2-methyl-3-(3-(N-methylmethylsulfonamido)phenyl)-1H-indole-5-carboxylic acid] | > 3000 | > 3000 | < 300 | > 300 |
| Cc1c(-c2ccc(F)cc2)c2cc(C(=O)O)ccc2n1C/C(F)=C/CN [Compound 23, (Z)-1-(4-amino-2-fluorobut-2-en-1-yl)-3-(4-fluorophenyl)-2-methyl-1H-indole-5-carboxylic acid] | > 3000 | > 3000 | < 300 | > 300 |
| COc1cc(-c2c(C)n(C/C(F)=C/CN)c3ccc(S(C)(=O)=O)cc23)ccn1 [Compound 98, (Z)-3-fluoro-4-(3-(2-methoxypyridin-4-yl)-2-methyl-5-(methylsulfonyl)-1H-indol-1-yl)but-2-en-1-amine] | > 3000 | > 3000 | < 300 | > 300 |
